T/C data for 15 compounds are collected here from PubChem BioAssay AID328 (DTP/NCI, 2004).

In the test the test system is BDF1 mice, P388 leukemia ip, median survival T/C. Kind of test: NCI In Vivo Anticancer Drug Screen. Data for tumor model P388 Leukemia (intraperitoneal) in B6D2F1 (BDF1) mice. Conditions: endpoint: median survival time, higher = longer survival. In short, it runs like this:
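T/C = treated-group survival ÷ vehicle-control survival; tumour transplanted into mice before dosing.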

[1] abbreviates: dose: 50.0 mg/kg/injection, schedule: Q01DX009 (ip), vehicle: Klucel (hydroxypropylcellulose) (HPC).
Setting [2] is: dose: 100.0 mg/kg/injection, schedule: Q01DX009 (ip), vehicle: Klucel (hydroxypropylcellulose) (HPC).
The mark [3] stands for this setting: dose: 100.0 mg/kg/injection, schedule: Q04DX003 (ip), vehicle: Klucel (hydroxypropylcellulose) (HPC).
Where [4] appears, read: dose: 25.0 mg/kg/injection, schedule: Q01DX009 (ip), vehicle: saline with Tween-80.
Setting [5] is: dose: 50.0 mg/kg/injection, schedule: Q01DX009 (ip), vehicle: saline with Tween-80.
The mark [6] stands for this setting: dose: 100.0 mg/kg/injection, schedule: Q04DX003 (ip), vehicle: saline with Tween-80.
Setting [7] is: dose: 200.0 mg/kg/injection, schedule: Q04DX003 (ip), vehicle: saline with Tween-80.
[8] abbreviates: dose: 400.0 mg/kg/injection, schedule: Q04DX003 (ip), vehicle: saline with Tween-80.
The mark [9] stands for this setting: dose: 100.0 mg/kg/injection, schedule: Q01DX009 (ip), vehicle: saline.
Setting [10] is: dose: 200.0 mg/kg/injection, schedule: Q01DX009 (ip), vehicle: saline.
Setting [11] is: dose: 100.0 mg/kg/injection, schedule: Q04DX003 (ip), vehicle: saline.

The structures appear in SMILES notation. Where “and” joins values, the source holds several entries; their conditions need not be identical. Equal values may be shown once. Inconclusive results and toxic doses are left out.

Regarding `CCN(C(=O)C(F)(F)F)C(C)(C)C(SSSC(c1ccc(Cl)cc1)C(C)(C)N(CC)C(=O)C(F)(F)F)c1ccc(Cl)cc1` (stereo not given), the T/C is, setting by setting: (dose: 22.0 mg/kg/injection, schedule: Q01DX009 (ip), vehicle: Klucel (hydroxypropylcellulose) (HPC)) 115 % of control; (dose: 33.0 mg/kg/injection, schedule: Q01DX009 (ip), vehicle: Klucel (hydroxypropylcellulose) (HPC)) 115 % of control; under setting [1], 120 % of control; (dose: 75.0 mg/kg/injection, schedule: Q01DX009 (ip), vehicle: Klucel (hydroxypropylcellulose) (HPC)) 120 % of control; under setting [2], 100 % of control; under setting [3], 112 % of control. In addition, the T/C (dose: 200.0 mg/kg/injection, schedule: Q04DX003 (ip), vehicle: Klucel (hydroxypropylcellulose) (HPC)) is 116 % of control.

For `O=C(O)CCSc1ncnc2nc[nH]c12`, the T/C was 104 % of control (dose: 12.5 mg/kg/injection, schedule: Q01DX009 (ip), vehicle: saline with Tween-80); 109 % of control under setting [4]; 109 % of control under setting [5]; 100 % of control under setting [6]; 113 % of control under setting [7]; 104 % of control under setting [8].

For `CCCCCCCCCCCCNC`, the T/C by setting is: (dose: 12.5 mg/kg/injection, schedule: Q04DX003 (ip), vehicle: saline with Tween-80) 104 % of control; (dose: 25.0 mg/kg/injection, schedule: Q04DX003 (ip), vehicle: saline with Tween-80) 109 % of control; (dose: 50.0 mg/kg/injection, schedule: Q04DX003 (ip), vehicle: saline with Tween-80) 100 % of control.

As for `C=C(C)C12OC3(c4ccccc4)OC1C1C4OC4(CO)C(O)C4(O)C(=O)C(C)=CC4C1(O3)C(C)C2OC(=O)/C=C/C=C/C=C/CCC` (stereo not given), the T/C was 109 % of control (dose: 6.3 micrograms/kg/injection, schedule: Q## X009 (ip), vehicle: saline with Tween-80); 106 % of control (dose: 12.5 micrograms/kg/injection, schedule: Q## X009 (ip), vehicle: saline with Tween-80); 109 % of control (dose: 25.0 micrograms/kg/injection, schedule: Q## X009 (ip), vehicle: saline with Tween-80); 106 % of control (dose: 50.0 micrograms/kg/injection, schedule: Q## X009 (ip), vehicle: saline with Tween-80); 168 % of control (dose: 100.0 micrograms/kg/injection, schedule: Q## X009 (ip), vehicle: saline with Tween-80).

Turning to `CC(NC(=O)c1ccc(Cl)cc1Cl)c1ccccc1` (stereo not given), the T/C was 100 % of control (dose: 100.0 mg/kg/injection, schedule: Q01DX001 (ip), vehicle: other) and 95 % of control (dose: 400.0 mg/kg/injection, schedule: Q01DX001 (ip), vehicle: other).

For `CC(C)C1C(C)N1C(C)C` (stereo not given), the T/C was 100 % of control (dose: 25.0 mg/kg/injection, schedule: Q01DX009 (ip), vehicle: Klucel (hydroxypropylcellulose) (HPC)); 100 % of control (dose: 25.0 mg/kg/injection, schedule: Q04DX003 (ip), vehicle: Klucel (hydroxypropylcellulose) (HPC)); 100 % of control under setting [1]; 100 % of control (dose: 50.0 mg/kg/injection, schedule: Q04DX003 (ip), vehicle: Klucel (hydroxypropylcellulose) (HPC)); 95 % of control under setting [2]; 104 % of control under setting [3].

For the compound `CCOP(=O)(OCC)C(C)OC` (stereo not given), the T/C is 100 % of control and 105 % of control (dose: 50.0 mg/kg/injection, schedule: Q01DX009 (ip), vehicle: saline); 115 % of control and 116 % of control under setting [9]; 104 % of control and 120 % of control under setting [10]; 100 % of control (dose: 400.0 mg/kg/injection, schedule: Q01DX009 (ip), vehicle: saline).

Consider `COc1ccc(C(=O)CCCCl)c(OC)c1`, for which the T/C under setting [6] is 100 % of control, the T/C under setting [7] was 100 % of control and the T/C under setting [8] was 90 % of control.

Regarding `C#CC(OC(=O)NC1CCCCC1)(c1ccccc1)c1ccccc1`, the T/C is, setting by setting: (dose: 16.5 mg/kg/injection, schedule: Q01DX009 (ip), vehicle: saline with Tween-80) 98 % of control; under setting [4], 215 % of control; (dose: 37.5 mg/kg/injection, schedule: Q01DX009 (ip), vehicle: saline with Tween-80) 213 % of control; under setting [5], 190 % of control; (dose: 88.0 mg/kg/injection, schedule: Q04DX003 (ip), vehicle: saline with Tween-80) 183 % of control; (dose: 132.0 mg/kg/injection, schedule: Q04DX003 (ip), vehicle: saline with Tween-80) 187 % of control. Under setting [7], the T/C was 116 % of control.

Consider `COc1cc2cc(c1Cl)N(C)C(=O)CC(O)C1(C)OC1C(C)C1CC(O)(NC(=O)O1)C(OC)C=C/C=C(\C)C2` (stereo not given), for which the T/C (dose: 1.8 micrograms/kg/injection, schedule: Q01DX009 (ip), vehicle: saline + alcohol) is 102 % of control; the T/C (dose: 3.1 micrograms/kg/injection, schedule: Q01DX009 (ip), vehicle: saline + alcohol) was 102 % of control and 115 % of control; the T/C (dose: 6.2 micrograms/kg/injection, schedule: Q01DX009 (ip), vehicle: saline + alcohol) is 102 % of control and 108 % of control; the T/C (dose: 12.5 micrograms/kg/injection, schedule: Q01DX009 (ip), vehicle: saline + alcohol) is 102 % of control and 108 % of control; the T/C (dose: 25.0 micrograms/kg/injection, schedule: Q01DX009 (ip), vehicle: saline + alcohol) was 94 % of control and 113 % of control; the T/C (dose: 50.0 micrograms/kg/injection, schedule: Q01DX009 (ip), vehicle: saline + alcohol) is 94 % of control and 112 % of control. The T/C is 94 % of control and 105 % of control (dose: 100.0 micrograms/kg/injection, schedule: Q01DX009 (ip), vehicle: saline + alcohol); 108 % of control and 112 % of control (dose: 200.0 micrograms/kg/injection, schedule: Q01DX009 (ip), vehicle: saline + alcohol); 102 % of control (dose: 400.0 micrograms/kg/injection, schedule: Q01DX009 (ip), vehicle: saline + alcohol).

On to `Cn1cc(/C=C\C(=O)O)c2nccnc21`, for which the T/C (dose: 6.25 mg/kg/injection, schedule: Q01DX009 (ip), vehicle: water) was 96 % of control; the T/C (dose: 12.5 mg/kg/injection, schedule: Q01DX009 (ip), vehicle: water) was 90 % of control; the T/C (dose: 25.0 mg/kg/injection, schedule: Q01DX009 (ip), vehicle: water) is 90 % of control; the T/C (dose: 100.0 mg/kg/injection, schedule: Q01DX009 (ip), vehicle: water) was 102 % of control.

As for `CC(CS(=O)(=O)O)N1CCOCC1` (stereo not given), the T/C under setting [9] was 91 % of control; the T/C under setting [11] was 104 % of control; the T/C under setting [10] is 104 % of control; the T/C (dose: 200.0 mg/kg/injection, schedule: Q04DX003 (ip), vehicle: saline) is 100 % of control; the T/C (dose: 400.0 mg/kg/injection, schedule: Q04DX003 (ip), vehicle: saline) was 95 % of control.

For `COC(=O)CC(CC(=O)c1ccccc1)c1ccccc1` (stereo not given), the T/C runs as follows: under setting [5], 95 % of control; (dose: 100.0 mg/kg/injection, schedule: Q01DX009 (ip), vehicle: saline with Tween-80) 97 % of control; (dose: 200.0 mg/kg/injection, schedule: Q01DX009 (ip), vehicle: saline with Tween-80) 87 % of control; (dose: 400.0 mg/kg/injection, schedule: Q01DX009 (ip), vehicle: saline with Tween-80) 88 % of control.

On to `CCCCCCCCN(N)C12CC3CC(CC(C3)C1)C2`, for which the T/C (dose: 12.5 mg/kg/injection, schedule: Q01DX009 (ip), vehicle: saline) is 116 % of control; the T/C (dose: 12.5 mg/kg/injection, schedule: Q04DX003 (ip), vehicle: saline) was 90 % of control; the T/C (dose: 25.0 mg/kg/injection, schedule: Q01DX009 (ip), vehicle: saline) was 119 % of control; the T/C (dose: 25.0 mg/kg/injection, schedule: Q04DX003 (ip), vehicle: saline) was 100 % of control; the T/C (dose: 50.0 mg/kg/injection, schedule: Q04DX003 (ip), vehicle: saline) was 94 % of control; the T/C under setting [11] was 100 % of control.

As to `Cc1ncc(CO)c(C)c1O`, the T/C (dose: 12.5 mg/kg/injection, schedule: Q01DX010 (ip), vehicle: saline) is 100 % of control; the T/C (dose: 25.0 mg/kg/injection, schedule: Q01DX010 (ip), vehicle: saline) is 100 % of control; the T/C (dose: 50.0 mg/kg/injection, schedule: Q01DX010 (ip), vehicle: saline) was 100 % of control; the T/C (dose: 100.0 mg/kg/injection, schedule: Q01DX010 (ip), vehicle: saline) was 100 % of control.
